Assay results published in EP0108606B1, “Steroid compounds” (STERWIN AG., priority 1982, dated 1984).
Read-outs that look alike come from different tables or passages of the source.

What was measured:
[1] = Bioavailability Test: plasma levels after oral 60 mg capsules of different trilostane particle size; assay type: in vivo, volunteers; conditions: for AUC at 24 h: human, plasma, po, 120 mg, 120 mg trilostane (2 x 60 mg capsules) oral, empty stomach, eight volunteers, read-out: Trilostane AUCo^24
Procedure: 60 mg capsules were prepared as described in Example 1 by wet granulation techniques using batches of trilostane comprising (i) particles having a mean equivalent sphere volume diameter of about 10 µm (at least about 95% of the particles having a particle size of less than about 50 pm), (ii) particles of mean equivalent sphere volume diameter of about 45 µm, and (iii) particles of mean equivalent sphere volume diameter greater than 100 pm.
In a three part double blind cross-over study on eight volunteers, each volunteer received a dosage of 120 mg of trilostane (2 x 60 mg capsules) on an empty stomach with 50 ml of tap water. Blood samples (8 ml) were taken pre-medication and at 0.5, 1.0, 2.0, 3.0, 4.0, 5.0, 6.0, 8.0, 10.0 and 24.0 hours and assayed for plasma levels of trilostane and trilostane metabolite. Plasma concentrations were processed by a computer programme giving maximum concentration in plasma (Cmax) and time taken to reach this maximum (Tmax) by inspection. Values for the area under the curve of concentration against time over the time span 0 to t ( [formula] ―where t is time) were then calculated using the trapezoid rule and statistical analysis was carried out using the Students paired t-test.
The following Table I sets out [formula] values (mg.ml^-1.h) for trilostane and 17-keto metabolite.

[2] = In vitro dissolution or release testing of products with different trilostane particle sizes; assay type: physicochemical; conditions: products containing batches of trilostane of differing particle sizes

SMILES: C[C@]12CC[C@H]3[C@@H](CC[C@@]45O[C@@H]4C(O)=C(C#N)C[C@]35C)[C@@H]1CC[C@@H]2O [Trilostane, 2a-cyano-4a,5a-epoxyandrostan-17a-ol-3-one]
- ratio of Metabolite AUC to Trilostane AUCo^4 ([1]; 10 µm material): 3.1
- ratio of Metabolite AUC to Trilostane AUCo^4 ([1]; 45 µm material): 4.5
- ratio of Metabolite AUC to Trilostane AUCo^4 ([1]; 100 µm material): 6.5
- plasma levels at 24 hours ([1]; 24 hours after 120 mg oral, in most cases): could not be detected
- AUC at 24 h ([1]; particle size 10 µm): 1600 µg·h/mL
- AUC at 24 h ([1]; particle size 45 µm): 600 µg·h/mL
- AUC at 24 h ([1]; particle size 100 µm): 200 µg·h/mL
- dissolution or release properties [2]: could not be differentiated
